Results reported in patent US20220323410A1, “OXYTOCIN ANTAGONIST DOSING REGIMENS FOR PROMOTING EMBRYO IMPLANTATION AND PREVENTING MISCARRIAGE” (ObsEva S.A., priority 2019, published 2022).

What was measured:
[1] = target: CYP2D6 (Homo sapiens, UniProt P10635); assay: Metabolism by CYP2D6 isoform; type: in vitro ADME; settings: substantially pure (3E) diastereomer; also CYP2C19
Experimental: (§1) At five time points over the course of a 45 minute experiment, the compounds were analyzed by LC-MS/MS. The percentage of each compound remaining at each time point, along with the metabolic half-lives of each compound in the presence of each cytochrome P450 isoform, are indicated in Tables 10-12, below.

[2] = tested on: endometrial blood flow in human subjects; assay: Endometrial blood flow in human subjects (Example 4); settings: in vivo
Text: Values along the y-axis represent endometrial flow index (FI), a parameter that is proportional to the volumetric quantity of blood that circulates through the endometrium in a given period of time.
Values along the y-axis represent endometrial vascularity index (VI), a parameter that is proportional to the total quantity of blood vessels in a subject's endometrium.
Values along the y-axis represent vascularity flow index (VFI), a parameter that is proportional to the total quantity of blood that circulates through a given volume of a subject's endometrium.

[3] = Phase 2 clinical study of Example 1: serum level of compound (II) at embryo transfer; type: in vivo; settings: female, human, mean
Text: (§2) A total of 247 female subjects were selected for treatment based on a variety of inclusion criteria. Of these, 244 subjects completed the study. The study was open to healthy female volunteers from 18 to 36 years of age that had previously undergone up to one IVF or ICSI cycle that resulting in a negative pregnancy test as assessed by hCG detection, despite the transfer of at least one embryo of good quality, which was defined as an embryo having from six to eight blastomeres of uniform size and shape on the day of embryo transfer, ooplasm having no granularity, absence of multinucleation, and a maximum fragmentation of 10%. Subjects included in the study had at least one functional ovary and were capable of communicating with the investigator and research staff and complying with the requirements of the study protocol. Data are presented in the form of mean (standard deviation).
Subjects included in the study underwent an initial screening period beginning up to 12 weeks prior to the day of oocyte retrieval from the subject. During this 12-week period, subjects underwent physical and gynecological examination in preparation for oocyte retrieval. This analysis included a recordation of the subjects' vital signs, hematology and biochemistry analysis of blood samples withdrawn from the subjects, urinary analysis, and a comprehensive review of the subjects' medical histories.
At the conclusion of the screening period, subjects underwent controlled ovarian hyperstimulation by administration of a GnRH antagonist so as to prevent a premature rise in serum LH concentration. Concurrent pre-treatment with an oral contraceptive prior to controlled ovarian hyperstimulation was allowed, but not required. Final follicular maturation was performed with a single administration of hCG to the subject. […]
(§3) The embryo transfer procedure was conducted three days after the oocyte retrieval day (OPU+3 days). Subjects undergoing embryo transfer were monitored prior to initiating the procedure. […]

[4] = tested on: female human subjects undergoing embryo transfer therapy; assay: Clinical studies of embryo implantation in subjects undergoing embryo transfer therapy (Example 1); type: in vivo
Text: as §2
Subjects included in the study underwent an initial screening period beginning up to 12 weeks prior to the day of oocyte retrieval from the subject. During this 12-week period, subjects underwent physical and gynecological examination in preparation for oocyte retrieval. […]
as §3

[5] = tested on: uterine contractions in human subjects; assay: Uterine contractility in human subjects (Example 4); settings: in vivo
Text: Values along the y-axis represent the quantity of uterine contractions (UC) per minute.

[6] = tested on: spontaneous uterine contractions; settings: cited from earlier work
[7] = target: CYP3A4 (Homo sapiens, UniProt P08684); assay: Metabolism by CYP3A4 isoform; type: in vitro ADME; settings: substantially pure compound (II)
Experimental: as §1

[8] = tested on: subjects undergoing embryo transfer; assay: Pregnancy and live birth rates, clinical study in subjects undergoing embryo transfer; type: in vivo, human; settings: post hoc, pre-dose serum P4 quartiles 1-3; significant dose-dependent fashion (p<0.02)
Experimental: From one to two embryos of good quality were transferred to each subject. To reduce uterine contractions at the time of embryo transfer, soft or ultra-soft catheters were used and contact with the uterine fundus was avoided. Any difficulties that occurred during the embryo transfer procedure were recorded, including instances in which uterine sounding or cervical dilation were required, instances in which a harder catheter was required, or instances in which blood was found in any part of the catheter.
Approximately 1 hour following embryo transfer, subjects underwent a final physical examination and were subsequently discharged from the clinical unit until the first follow-up visit, which occurred at about 14 days following oocyte retrieval (OPU+14 days). At this time, subjects underwent a physical examination as well as a blood sample analysis to assess pregnancy by detection of hCG. […] Pregnancy status was monitored by detecting embryo heartbeat. […]
Positive blood pregnancy test at 14 days following oocyte retrieval and positive embryo heartbeat at 10 weeks following oocyte retrieval were assessed in the same manner as described above. Change from baseline to the time of embryo transfer in uterine contraction rate was analyzed by the Wilcoxon Rank Sum Test by comparing the uterine contraction rate associated with each dose to that observed with placebo-treated subjects.

[9] = tested on: endometrial perfusion; assay: Uterine perfusion by 3D-power Doppler in healthy female volunteers; type: in vivo, human; settings: baseline to 24 hours; both 900 mg and 1,800 mg doses
Experimental: (§4) Particularly, subjects were pre-treated with estradiol valerate at a dosage of 2 mg administered 3 times per day (TID) for 16 days. Administration of estradiol valerate was followed by vaginal progesterone at a dosage of 200 mg administered TID.
(§5) These assessments included measurements of uterine contractions by ultrasound and uterine perfusion by a 3D-power Doppler technique.
(§6) Mean and median changes in uterine contraction frequency and endometrial vascularity indices (particularly, endometrial flow index (FI), vascularity index (VI), and vascularity flow index (VFI)) were calculated. […] Differences in endometrial mRNA expression were identified and assessed for statistical significance.

[10] = tested on: uterine contractions; assay: Uterine contractions by ultrasound in healthy female volunteers; type: in vivo, human; settings: 1,800 mg dose
Experimental: as §4, §5, §6

[11] = tested on: endometrial RNA transcript expression; assay: Endometrial RNA transcript expression by RNA-Seq in healthy female volunteers; type: in vivo, human; settings: 900 mg
Experimental: as §4, §5, §6
Using an RNA-Seq assay, each subject's expression of a variety of genes, including DPP4, CNTNAP3, CNTN4, CXCL12, TNXB, CTSE, OLFM4, KRT5, KRT6A, and IDO2, was then assessed to determine whether the expression of each gene increased, decreased, or underwent no significant change due to administration of the compound or placebo.

[12] = Concentration of compound (II) after single oral dose in healthy female volunteers; type: in vivo, human; settings: oral administration of either the 900 mg or the 1,800 mg dose; FIG. 6
Experimental: as §4

[13] = crystal form with XRPD peaks of Table 1; cited from earlier work

Sequence of CYP3A4 (P08684 whole entry, canonical isoform): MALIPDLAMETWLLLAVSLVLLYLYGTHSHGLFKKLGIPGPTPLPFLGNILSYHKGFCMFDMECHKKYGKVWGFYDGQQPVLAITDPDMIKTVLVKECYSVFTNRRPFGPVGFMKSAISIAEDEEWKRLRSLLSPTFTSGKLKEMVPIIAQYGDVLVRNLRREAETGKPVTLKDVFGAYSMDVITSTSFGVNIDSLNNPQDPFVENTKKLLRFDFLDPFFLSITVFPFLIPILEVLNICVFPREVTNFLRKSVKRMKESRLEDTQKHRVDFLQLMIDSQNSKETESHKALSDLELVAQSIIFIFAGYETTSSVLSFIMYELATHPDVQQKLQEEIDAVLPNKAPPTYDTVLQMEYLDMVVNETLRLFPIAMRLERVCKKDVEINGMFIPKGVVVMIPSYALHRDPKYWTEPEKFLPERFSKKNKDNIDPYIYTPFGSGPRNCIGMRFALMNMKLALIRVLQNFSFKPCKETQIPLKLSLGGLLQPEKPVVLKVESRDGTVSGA
Sequence of CYP2D6 (P10635 whole entry, canonical isoform): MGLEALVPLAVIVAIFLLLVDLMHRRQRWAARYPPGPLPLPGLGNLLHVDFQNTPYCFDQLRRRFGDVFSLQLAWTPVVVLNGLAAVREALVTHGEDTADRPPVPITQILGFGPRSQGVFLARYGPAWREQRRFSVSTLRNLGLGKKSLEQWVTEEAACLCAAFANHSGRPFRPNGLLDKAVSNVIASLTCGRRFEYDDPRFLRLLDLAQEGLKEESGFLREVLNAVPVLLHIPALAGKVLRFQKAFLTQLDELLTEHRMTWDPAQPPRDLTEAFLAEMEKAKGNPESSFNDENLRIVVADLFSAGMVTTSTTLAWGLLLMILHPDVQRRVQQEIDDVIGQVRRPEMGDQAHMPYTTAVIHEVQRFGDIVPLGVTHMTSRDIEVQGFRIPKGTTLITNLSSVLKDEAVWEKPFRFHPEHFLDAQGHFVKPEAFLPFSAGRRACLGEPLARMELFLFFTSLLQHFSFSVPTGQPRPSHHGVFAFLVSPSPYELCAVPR

CO/N=C1\C[C@@H](CO)N(C(=O)c2ccc(-c3ccccc3C)cc2)C1 [(3E) isomer, (3E,5S)-5-(hydroxymethyl)-1-[(2′-methyl-1,1′-biphenyl-4-yl)carbonyl]pyrrolidin-3-one O-methyloxime]
Preferential metabolism by cytochrome P450 isoform [1]: preferentially metabolized by cytochrome P450 isoforms 2D6 (CYP2D6) and 2C19 (CYP2C19)

CO/N=C1/C[C@@H](CO)N(C(=O)c2ccc(-c3ccccc3C)cc2)C1 [compound (II), (3Z,5S)-5-(hydroxymethyl)-1-[(2′-methyl-1,1′-biphenyl-4-yl)carbonyl]pyrrolidin-3-one O-methyloxime]
flow of blood to the endometrium [2]: augment the flow of blood to the endometrium
concentration at 4 hours ([3]; 100 mg oral dose about 4 hours prior to embryo transfer, n = 62): 484 ng/mL
concentration at 4 hours ([3]; 300 mg oral dose about 4 hours prior to embryo transfer, n = 60): 1450 ng/mL
concentration at 4 hours ([3]; 900 mg oral dose about 4 hours prior to embryo transfer, n = 60): 4160 ng/mL
successful embryo implantation rate ([4]; dose-dependent, particularly strong at pre-treatment serum P4 below 320 nM): improve successful embryo implantation rate
risk of embryo implantation failure ([4]; human subjects that previously underwent ovarian hyperstimulation and oocyte retrieval): reduce the risk of embryo implantation failure
uterine contractility [5]: reduce uterine contractility
Reduction in spontaneous uterine contractions ([6]; 10, 30, and 60 mg/kg, anesthetized late-term pregnant rats): dose-dependent reduction in spontaneous uterine contractions
Inhibitory activity with respect to uterine contraction versus (3E) diastereomer ([6]; same vehicle, same model organism): markedly higher than that of the substantially pure (3E) diastereomer
Preferential metabolism by cytochrome P450 isoform [7]: preferentially metabolized by cytochrome P450 isoform 3A4 (CYP3A4)
Pregnancy and live-birth rates versus placebo group [8]: overall increase in pregnancy and live-birth rates in the treatment arms versus the placebo group
Endometrial perfusion parameters, median values [9]: marked and sustained increases in median values
Proportion of subjects showing less than one uterine contraction per minute versus placebo ([10]; p=0.0121): significance was seen at the 8-hour time point
Number of uterine contractions per minute versus placebo ([10]; p=0.0923 at 4 hours, p=0.0081 at 8 hours): contraction-reducing effects were observed from the 4-hour time point onwards
mRNA expression in endometrial biopsy tissue compared to placebo [11]: No differences in mRNA expression
Time at which maximum concentration is reached [12]: about 4 hours

CO/N=C1/C[C@@H](CO)N(C(=O)c2ccc(-c3ccccc3C)cc2)C1 [crystal form of compound (II), (3Z,5S)-5-(hydroxymethyl)-1-[(2′-methyl-1,1′-biphenyl-4-yl)carbonyl]pyrrolidin-3-one O-methyloxime]
stability to aqueous media and physical stress [13]: enhanced stability to aqueous media and physical stress
